Experimental data reported in patent US20170002048A1, “METHOD FOR PURIFYING AND RE[…] BODIES OF SCORPION TOXIN PROTEIN AND THEIR USE” (GUANGZHOU GLAM BIOTECHNOLOGY CO., LTD., priority 2015, published 2017).

Tested on: HepG2 tumor
Experiment: Anti-tumor activity in vivo, HepG2 mice model
Set-up: species or system CD-1 nu/nu mice
Conditions: CHis6-rAGAP 1 and 2 mg/kg, 5-FU 25 mg/kg, every 2 days
Method: The CD-1 nu/nu mice (thymus removed, bodyweight 16˜18 g, half male and half female) were purchased from Shanghai Experiment Animal Center of Chinese Academy of Sciences. The mice were subcutaneously injected 5×10^6 HepG2 cells to make a model, when the tumor volume was grew to about 100 mm^3, the mice were randomized into four groups, 10 mice in each group, the experiment groups were respectively injected 1 mg/kg and 2 mg/kg of CHis6-rAGAP, the positive control group were injected 25 mg/kg of 5-FU, the negative control group was injected with normal saline, the volumes were all 200 μl/2 days. The change of tumor volume and bodyweight of the mice were determined every 2 days, after 18 days the mice were killed, and the tumor were taken out. […] In order to evaluate the influence of CHis6-rAGAP and 5-FU on life quality of the mice, change of mice bodyweight was also determined during the experiment. […] Furthermore, after 18 days of drug administration, there was no death case in the mice of CHis6-rAGAP administration group, whereas 40% of the mice in 5-FU group were dead.

SMILES: O=c1[nH]cc(F)c(=O)[nH]1 [5-FU]
- death of mice after 18 days of drug administration: 40%
- influence on bodyweight of the mice (18 days): reduced significantly
